Experimental data from patent US20250302909A1, “METHODS FOR THE TREATMENT OF AGE-RELATED MACULAR DEGENERATION” (Stealth BioTherapeutics Inc., priority 2024, published 2025).

How the values were obtained:
[1] = system: patients with at least one eye with dry AMD and GA
Experimental: Study design. In this Phase 2, randomized, placebo-controlled, double-masked, multicenter, safety and efficacy trial (ClinicalTrials.gov identifier NCT03891875), patients with at least one eye with dry AMD and GA were included. Visit 1 (screening visit) was performed no more than 14 days before the baseline visit (visit 2, day 1) (FIG. 1). […] (Allingham 2022; Mettu 2022). Patients were treated for 48 weeks, with assessments at day 1 and weeks 4, 8, 12, 24, 36, and 48 (visits 2 to 8) plus a final safety follow-up visit 4 weeks after the last day of study treatment (week 52; visit 9). Patient diaries and vial counts were used and reviewed to verify compliance.
Safety/tolerability evaluations included assessment of the incidence and severity of adverse events/adverse device effects, incidence of conversion to MNV, changes from baseline in vital sign measurements, electrocardiograms, clinical evaluations, clinical laboratory evaluations, slit lamp examination, and dilated fundus examination.
Statistical analysis. Safety and efficacy variables were summarized descriptively. The safety population included all patients receiving ≥1 dose of investigational product. […] Patients were analyzed according to the actual treatment received. A sample size of 180 patients provides ≥80% power to detect a 5-letter (1-line) change from baseline mean difference in LL BCVA between drug and placebo, assuming a standard deviation of 11 letters, at a two-sided alpha-level of 0.10, and proves approximately 80% power to detect a 30% difference in the change from baseline in square root transformed total GA area by OCT between drug and placebo, assuming a standard deviation of 0.2 mm/year, and an average change of 0.33 mm/year, at a two-sided alpha-level of 0.1.

[2] = system: patients with at least one eye with dry AMD and GA; test: Phase 2 trial: ellipsoid zone integrity (tEZa, pEZa) and GA on OCT; type: in vivo, human
Source text: (§1) Study design. […] (Allingham 2022; Mettu 2022).
(§2) Study objectives and endpoints. The primary efficacy endpoints were changes from baseline in LL BCVA and in square root converted GA area as measured by OCT. Secondary efficacy endpoints included changes in ellipsoid zone integrity, categorical changes from baseline in LL-BCVA, changes from baseline in LL reading acuity (LLRA), BCVA, and GA area as measured by FAF. Additional predefined endpoints included change in center 1-mm and 2-mm mean EZ-RPE thickness, National Eye Institute Visual Function Questionnaire (VFQ-39) score, RA at standard light, visual function by the Low-Luminance Questionnaire (LLQ). For efficacy endpoints, the unit of analysis was study eye; in cases where both eyes were eligible for analysis, the study eye was the eye with the worse LL BCVA as determined at baseline (right eye was the study eye for equal LL BCVA). Ellipsoid zone integrity was measured as previously described on OCT utilizing a machine learning enhanced multi-layer segmentation platform that provided panmacular assessment of the EZ and RPE location (Sirici, et al., Ophthamol Surg Lasers Imaging Retina, 2022; Itoh, et al, Br J Ophthamol, 2016).
Statistical analysis. Safety and efficacy variables were summarized descriptively. […] Patients were analyzed according to the actual treatment received.
For continuous data, a mixed model for repeated measures was used for each eye separately (study eye), with fixed effects for treatment arm, study visit, the treatment arm-by-visit interaction, baseline as a covariate, a baseline-by-visit interaction, a random effect for subject, using an unstructured covariance structure. The primary time point for analysis was week 48 (end of treatment visit) and the mITT population was the primary analysis population using observed data. A family-wise alpha level of 0.1 was maintained for the primary endpoint family, using Hochberg's procedure at the primary time point of 48 weeks. […] Otherwise, the endpoint with the smaller p-value of the two was considered statistically significant, if statistically significant at the 0.05 (two-sided) level of significance.

[3] = system: patients with at least one eye with dry AMD and GA; test: Phase 2 trial (NCT03891875): low-luminance best-corrected visual acuity (LL BCVA); type: in vivo, human; details: week 48
Experimental: as §1
Patients—Key inclusion criteria. The original protocol specified that adults ≥55 years of age with one eye with dry AMD and GA were eligible for study entry. However, a subsequent amendment to the protocol limited inclusion to patients with noncentral GA. Noncentral GA and area was determined primarily by fundus autofluorescence (FAF) and all noncentral GA lesions were required to be ≥150 μm from foveal center with preserved outer retinal structural details, as confirmed by the central reading center (BIRC, Boston MA). Noncentral GA was required to be ≥0.05 mm^2 and ≤10.16 mm^2 in size, and reside completely within the FAF 30- or 35-degree image. […] The fellow eye was allowed to have AMD with or without GA, MNV, central GA, or no pathology.
as §2
Statistical analysis. Safety and efficacy variables were summarized descriptively. […] Patients were analyzed according to the actual treatment received. […]

[4] = general statement on formulation
[5] = system: patients with at least one eye with dry AMD and GA; test: Example 2: macular area of photoreceptor loss (tEZa) over time, linear mixed effects model; type: in vivo, human
Experimental: Data for this example was collected as part of the clinical study described above in Example 1. […] The primary analysis of rate of change in the macular area of photoreceptor loss over time was conducted using a linear mixed effects model assuming time as continuous and linear. […] Correlation between the repeated measurements of the same subject were accounted for by allowing an unstructured covariance matrix for the residuals. The outcome was the change in macular area of photoreceptor loss from baseline to each time point (time points being t=0, t=12 weeks, t=24 weeks, t=36 weeks and t=48 weeks) during the treatment period through week 48.

[6] = Table 1, 117 randomized to elamipretide
[7] = clinical study, rate of growth of photoreceptor loss

Cc1cc(O)cc(C)c1C[C@H](NC(=O)[C@H](N)CCCNC(=N)N)C(=O)N[C@@H](CCCCN)C(=O)N[C@@H](Cc1ccccc1)C(N)=O (stereo in doubt) [elamipretide, H-D-Arg-2′,6′Dmt-Lys-Phe-NH2]
Early discontinuation: Adverse event [1, 6]: 10 (8.5) n (%)
Early discontinuation: Withdrawal by subject [1, 6]: 20 (17.1) n (%)
Subjects leaving study early [1, 6]: 34 (29.1) n (%)
patients who discontinued the study early (percent) ([1]; of n=117 randomized): 29%
reduction in progression of pEZa relative to placebo ([2]; LS mean change baseline to week 48): 47%
reduction in progression of tEZa relative to placebo ([2]; LS mean change baseline to week 48, macular percentage of tEZa): 43%
progression of GA area relative to the baseline boundary of total EZ attenuation ([2]; during the trial, elamipretide treated arm): GA area did not progress to the baseline boundary of total EZ attenuation
growth of partial EZ attenuation area during the trial ([2]; elamipretide arm, placebo arm 35%): 14%
growth of total EZ attenuation area (mm^2) during the trial ([2]; elamipretide arm, placebo arm 52%): 24%
rate of progression of the EZ-GA gap ([2]; post-hoc analysis): slower rate of progression
LS mean change from baseline to week 48 for macular percentage of tEZa (EZ-RPE thickness of 0 μm) ([2]; week 48, 40 mg subcutaneous once daily, P=0.0034 vs placebo): 3.69%
LS mean change from baseline to week 48 for pEZa (EZ-RPE thickness≤20 μm) ([2]; week 48, 40 mg subcutaneous once daily, P=0.0040 vs placebo): 4.10%
least-squares (LS) mean changes from baseline in LL BCVA ([3]; primary endpoint, 40 mg subcutaneous once daily, mITT, P=0.49 vs placebo): −3.0 letters
patients experiencing a ≥2-line gain (≥10 letter) in LL BCVA ([3]; 40 mg subcutaneous once daily, P=0.0404 vs placebo): 14.6%
percentage of patients experiencing a >1-line gain ([3]; LL BCVA, vs placebo): higher compared to placebo
water solubility [4]: highly water soluble
mean rate of macular photoreceptor loss compared with the untreated group ([5]; FIG. 3, MMRM, weeks 12, 24, 36 and 48): reduced mean rate of macular photoreceptor loss
decrease of the growth of photoreceptor loss ([5]; FIG. 3, change in tEZa from baseline, weeks 12 to 48, 40 mg subcutaneous once daily vs untreated): about 50%
clinical benefit in subjects who commenced therapy before developing measurable geographic atrophy (GA) [5, 7]: experienced clinical benefit
clinical benefit in subjects with non-central GA [5, 7]: experienced clinical benefit
